± gives the expanded uncertainty stated by the source.

Here are results for 4 compounds from the NIST ThermoML archive (doi:10.1016/j.tca.2013.08.002).

Data set [1] can be described thus: mn = molality of the nth substance listed, in mol/kg. Particulars: 101 kPa, Liquid; for speed of sound: Frequency=1.999 MHz, Sing-around technique in a fixed-path interferometer; for mass density: Vibrating tube method.
The conditions of data set [2]: 101 kPa, Liquid, Frequency=1.999 MHz, Sing-around technique in a fixed-path interferometer.

For the compound `[Cl-].[Cl-].[Mg+2]` [magnesium chloride] + O, the speed of sound (commonly the propagation velocity of pressure waves in the medium) in data set [1] (288.15 K, m1 = 0.3) was 1510.3 ± 10 m/s; in data set [1] (293.15 K, m1 = 0.3), 1518.6 ± 10 m/s; in data set [1] (298.15 K, m1 = 0.3), 1529.1 ± 10 m/s; in data set [1] (303.15 K, m1 = 0.3), 1540 ± 10 m/s; in data set [1] (308.15 K, m1 = 0.3) it was 1551.9 ± 10 m/s; in data set [1] (313.15 K, m1 = 0.3), 1563 ± 10 m/s. Also, in data set [1] (318.15 K, m1 = 0.3), the speed of sound stood at 1573.4 ± 10 m/s. The mass density (as a rule, the mass of a sample divided by its volume) in data set [1] (288.15 K, m1 = 0.3) is listed as 1024.7 ± 2 kg/m3; in data set [1] (293.15 K, m1 = 0.3) it was 1022.7 ± 2 kg/m3; in data set [1] (303.15 K, m1 = 0.3) it was 1019.2 ± 2 kg/m3; in data set [1] (313.15 K, m1 = 0.3), 1014.9 ± 2 kg/m3; in data set [1] (318.15 K, m1 = 0.3) it was 1012.6 ± 2 kg/m3.

`O` [water] + C[N+](C)(C)CC(=O)[O-]: the speed of sound worked out at 1496.5 ± 10 m/s in data set [1] (298.15 K, m2 = 0); 1519.4 ± 10 m/s in data set [1] (308.15 K, m2 = 0); 1528.9 ± 10 m/s in data set [1] (313.15 K, m2 = 0).

For the compound `[Cl-].[K+]` [potassium chloride] + O, the speed of sound amounted to 1482.9 ± 10 m/s in data set [1] (288.15 K, m1 = 0.3); 1500.8 ± 10 m/s in data set [1] (293.15 K, m1 = 0.3); 1518.4 ± 10 m/s in data set [1] (298.15 K, m1 = 0.3); 1537.8 ± 10 m/s in data set [1] (303.15 K, m1 = 0.3); 1548.6 ± 10 m/s in data set [1] (308.15 K, m1 = 0.3); 1558.8 ± 10 m/s in data set [1] (313.15 K, m1 = 0.3). Further, the speed of sound in data set [1] (318.15 K, m1 = 0.3) is listed as 1568 ± 10 m/s. For the same compound, the mass density in data set [1] (288.15 K, m1 = 0.3) was 1019.9 ± 2 kg/m3; in data set [1] (293.15 K, m1 = 0.3), 1018.1 ± 2 kg/m3; in data set [1] (298.15 K, m1 = 0.3), 1016.9 ± 2 kg/m3; in data set [1] (303.15 K, m1 = 0.3) it was 1013.5 ± 2 kg/m3; in data set [1] (308.15 K, m1 = 0.3) it was 1008.5 ± 2 kg/m3; in data set [1] (313.15 K, m1 = 0.3), 1006.1 ± 2 kg/m3. Also, in data set [1] (318.15 K, m1 = 0.3), the mass density was determined as 1003.4 ± 2 kg/m3.

Take `O` [water]: the speed of sound in data set [2] (298.15 K) was 1496.5 ± 10 m/s; in data set [2] (308.15 K) it was 1519.4 ± 10 m/s; in data set [2] (313.15 K) it was 1528.9 ± 10 m/s.
